Measurements reported in patent US12503425B2, “Methods of treating or controlling cytotoxic cerebral edema” (Aeromics, Inc., priority 2012, dated 2025).

Experiments:
[1] = system: cerebral edema; assay: Mouse water toxicity model, brain water content; format: in vivo; settings: at 30 minutes
Description: Mouse Water Toxicity Model-Brain Water Content: Compounds are also tested for the ability to reduce CE in mice exposed to the water shock by examining brain water content. Mice are treated with a water bolus as described above, then sacrificed at 30 minutes. Brain water content is assessed by fresh/dry weight ratio, i.e. the brains are weighed immediately then desiccated in an oven at 100° C. for 24 h and dry weights measured (brain water percentage=[…]).

[2] = system: cerebral edema; assay: Mouse water toxicity model, brain volume by MRI; settings: 0.76 mg/kg, versus no drug
Description: The first time point at 5.67 min coincides with the scan slice at the middle of the brain during the first post-injection scan. Other time points are placed in a similar manner. The data is fitted to a single exponential equation: V/V0=Vi+dVmax(1−e^(−kt)); • where V/V0=relative brain volume, Vi=initial relative brain volume, dVmax=maximum change in relative brain volume, k=first order rate constant (min^−1), and t=time in minutes.
Mouse Water Toxicity Model-Brain Volume by Magnetic Resonance Imaging (MRI): MRI is used to measure changes in brain volume in response to water shock, using the water toxicity model. As described for the survival and brain water content studies above, mice are injected, IP, with a water bolus alone or water bolus and test compound at 0.76 mg/kg, and changes in brain volume as detected by MRI are monitored. […] This imaging method is found to provide sufficient contrast and resolution to sensitively detect changes in total brain volume in the mouse water toxicity model for cerebral edema. […] The cross sectional area of the brain in each imaging slice is measured by manual region-of-interest selection using ImageJ. Brain volumes are then calculated for each scan by summing the individual cross sectional brain areas and multiplying by the slice thickness (0.7 mm).

[3] = Bioconversion of Compound 5 to Compound 1 in mouse plasma in vitro; format: in vitro ADME; settings: 20° C.
[4] = system: middle cerebral artery occlusion (MCAo); assay: Mouse MCAo stroke model, neurological outcome (5 point scale); format: in vivo; settings: 5 mg/kg i.p. every three hours
Excerpt: An improvement in neurological outcome is observed for animals given Compound 5. Control animals have an average neurological score of 2.77±0.66, while animals given Compound 5 have an average score of 0.88±0.31 (FIG. 13, inset, P=0.025, n=9 per treatment).

[5] = system: AQP; assay: AQP inhibition cell-based assay (Table 1)

O=C(Nc1cc(C(F)(F)F)cc(C(F)(F)F)c1)c1cc(Cl)ccc1O [Compound 1]
reduction in CE (brain water content) ([1]; 0.76 mg/kg): 11.2%
reduction in CE (brain water content) ([1]; 7.6 mg/kg): 15.9%
detection in plasma samples from mice injected IP with Compound 5: undetectable
reduction of the rate of CE development [2]: 2.5 fold

O=C(Nc1cc(C(F)(F)F)cc(C(F)(F)F)c1)c1cc(Cl)ccc1OP(=O)(O)O [Compound 5]
time sufficient to render Compound 5 undetectable [3]: Less than 5 minutes
progression of neurological state (in words) [4]: did not progress into a state of severe paralysis or death

O=C(Nc1ccccc1)c1ccccc1 [Phenylbenzamide]
AQP inhibition Cell-Based Assay (%) [5]: 4.5%
